The source of these data is patent US10206937B2, “Boronic acid derivatives and therapeutic uses thereof” (Qpex Biopharma, Inc., priority 2014, dated 2019).

Assay [1] has as its target T1, NDM-1 (Klebsiella pneumoniae, UniProt C7C422). As to the kind of experiment: biochemical. The settings on record: cleavage of imipenem (100 uM) by NDM-1; read-out: Ki, Imipenem.
The target in the next assay is T2, VIM-1 (Pseudomonas aeruginosa, UniProt A0A0F7KYQ8).
T2 construct: made in house; host or cells: ECM6711 strain carrying pUCP24-VIM-1 plasmid; culture supernatant used unpurified
The assay can be described thus: biochemical. As to conditions: cleavage of nitrocefin (200 uM) by VIM-1 supernatant.

Assay [2] addresses T1, NDM-1. The assay can be described thus: Inhibition of purified class B carbapenemase NDM-1 (Ki, imipenem substrate). It is filed as biochemical. As to conditions: NDM-1, substrate imipenem; read-out: Ki NDM-1, Imipenem.
For assay [3], the target named is purified class A, C and D enzymes (Enterobacter cloacae, UniProt P05364). The format is biochemical. The settings on record: purified P99/AmpC of ECL; nitrocefin reporter substrate.
For assay [4], the target named is purified class A, C and D enzymes (Escherichia coli, UniProt Q9L5C7). The format is biochemical. As to conditions: purified CTX-M-14; nitrocefin reporter substrate.
Assay [5] deals with T3, purified class A, C and D enzymes (UniProt P0AD64, L31Q/G234S/E235K, species not given).
T3 construct: Ki (SHV-12, NCF); other: purified SHV-12; nitrocefin reporter substrate
T3 sequence (P0AD64 1-286 L31Q/G234S/E235K): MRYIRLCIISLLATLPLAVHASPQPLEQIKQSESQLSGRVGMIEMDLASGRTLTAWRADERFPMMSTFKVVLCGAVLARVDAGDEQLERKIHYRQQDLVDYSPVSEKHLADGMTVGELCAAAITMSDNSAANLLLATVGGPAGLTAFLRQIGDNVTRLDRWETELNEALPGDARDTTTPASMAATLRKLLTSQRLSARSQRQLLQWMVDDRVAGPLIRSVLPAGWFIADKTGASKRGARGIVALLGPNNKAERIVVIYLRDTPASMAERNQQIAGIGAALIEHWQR
The format is biochemical. As to conditions: read-out: Ki (SHV-12, NCF); purified SHV-12; nitrocefin reporter substrate.

The target in assay [6] is T4, purified class A, C and D enzymes (UniProt Q6XEC0).
T4 construct: rows headed: Ki (OXA-48, NCF); other: purified OXA-48; nitrocefin reporter substrate
The format is biochemical. The settings on record: read-out: Ki (OXA-48, NCF); purified OXA-48; nitrocefin reporter substrate.

Assay [7] concerns the target T5, purified class A, C and D enzymes (UniProt Q9F663).
T5 construct: rows headed: Ki (KPC-2, NCF); other: purified KPC-2; nitrocefin reporter substrate
The format is biochemical. The settings on record: read-out: Ki (KPC-2, NCF); purified KPC-2; nitrocefin reporter substrate.

Sequence of purified class A, C and D enzymes (Escherichia coli, UniProt Q9L5C7) (Q9L5C7 entry or part of it): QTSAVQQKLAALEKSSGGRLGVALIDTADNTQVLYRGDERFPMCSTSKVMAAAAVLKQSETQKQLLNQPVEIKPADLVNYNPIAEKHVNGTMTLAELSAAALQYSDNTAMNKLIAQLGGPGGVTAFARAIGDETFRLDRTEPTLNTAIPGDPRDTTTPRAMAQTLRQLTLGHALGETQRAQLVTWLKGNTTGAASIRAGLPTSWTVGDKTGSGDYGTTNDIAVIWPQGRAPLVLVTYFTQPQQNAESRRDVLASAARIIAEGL
T1 sequence (C7C422 29-270, looked up, species assumed): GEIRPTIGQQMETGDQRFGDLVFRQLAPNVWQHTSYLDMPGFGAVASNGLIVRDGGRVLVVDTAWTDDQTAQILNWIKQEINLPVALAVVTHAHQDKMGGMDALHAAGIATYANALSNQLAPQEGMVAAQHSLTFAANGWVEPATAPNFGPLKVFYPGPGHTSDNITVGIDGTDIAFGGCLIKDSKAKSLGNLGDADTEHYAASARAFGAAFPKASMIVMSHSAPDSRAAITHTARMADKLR
Sequence of purified class A, C and D enzymes (Enterobacter cloacae, UniProt P05364) (P05364 21-381): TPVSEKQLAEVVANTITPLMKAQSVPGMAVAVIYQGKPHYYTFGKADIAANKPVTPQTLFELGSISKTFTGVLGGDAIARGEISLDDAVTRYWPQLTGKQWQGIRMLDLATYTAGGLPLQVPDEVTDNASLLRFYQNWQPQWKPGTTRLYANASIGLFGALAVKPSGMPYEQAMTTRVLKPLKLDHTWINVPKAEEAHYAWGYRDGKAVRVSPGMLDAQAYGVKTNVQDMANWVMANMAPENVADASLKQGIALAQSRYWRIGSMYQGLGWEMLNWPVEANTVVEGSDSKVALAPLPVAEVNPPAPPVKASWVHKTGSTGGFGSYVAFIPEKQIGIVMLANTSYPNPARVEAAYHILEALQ

For `COc1ccc2c(c1C(=O)O)OB(O)[C@@H](Sc1nnc(N[C@H]3CCNC3)s1)C2` [Compound 103, (3R)-2-hydroxy-7-methoxy-3-[[5-[[(3S)-pyrrolidin-3-yl]amino]-1,3,4-thiadiazol-2-yl]sulfanyl]-3,4-dihydro-1,2-benzoxaborinine-8-carboxylic acid], the inhibition constant Ki at NDM-1 [1] was below 10 nM; on NDM-1 [2], below 10 nM; in assay [5], below 100 nM; in assay [6], below 100 nM; in assay [7], 100 to 1000 nM. For the same molecule, the 50% inhibitory concentration (IC50) on VIM-1 is below 1000 nM. For the same molecule, the “Ki (P99/AmpC of ECL, NCF)” value in assay [3] is “Y (0.1 μM to 1 μM)”. In assay [4], the “Ki (CTX-M-14, NCF)” value is on record as “X (Less than 0.1 μM)”.

Take `COc1ccc2c(c1C(=O)O)OB(O)[C@@H](SCCc1nnc(N)s1)C2` [Compound 43, (R)-3-(2-(5-amino-1,3,4-thiadiazol-2-yl)ethylthio)-2-hydroxy-7-methoxy-3,4-dihydro-2H-benzo[e][1,2]oxaborinine-8-carboxylic acid]: the inhibitory constant (Ki) at NDM-1 [1] was below 10 nM; on NDM-1 [2] it was below 10 nM; in assay [5], below 100 nM; in assay [6] it was below 100 nM; in assay [7], below 100 nM. On VIM-1, this molecule displayed an IC50 below 1000 nM. The “Ki (P99/AmpC of ECL, NCF)” value in assay [3] is listed as “X (Less than 0.1 μM)”. In assay [4], the “Ki (CTX-M-14, NCF)” value is given as “X (Less than 0.1 μM)”.

For `Nc1nnc(S[C@H]2Cc3cc4nc[nH]c4c(C(=O)O)c3OB2O)s1` [Compound 115, (3R)-3-[(5-amino-1,3,4-thiadiazol-2-yl)sulfanyl]-2-hydroxy-4,8-dihydro-3H-oxaborinino[6,5-f]benzimidazole-9-carboxylic acid], the inhibition constant Ki was above 100 nM on NDM-1 [1]; above 100 nM at NDM-1 [2]; below 100 nM in assay [5]; below 100 nM in assay [6]; 100 to 1000 nM in assay [7]. The molecule also came in with a half-maximal inhibitory concentration (IC50) against VIM-1 below 1000 nM. The “Ki (P99/AmpC of ECL, NCF)” value in assay [3] is given as “X (Less than 0.1 μM)”. In addition, in assay [4], the “Ki (CTX-M-14, NCF)” value is “X (Less than 0.1 μM)”.

`COc1ccc2c(c1C(=O)O)OB(O)[C@@H](Sc1nncn1CCCC(=O)O)C2` [Compound 41, (R)-3-(4-(3-carboxypropyl)-4H-1,2,4-triazol-3-ylthio)-2-hydroxy-7-methoxy-3,4-dihydro-2H-benzo[e][1,2]oxaborinine-8-carboxylic acid]: the inhibitory constant (Ki) is below 10 nM at NDM-1 [1]; below 10 nM on NDM-1 [2]; below 100 nM in assay [5]; below 100 nM in assay [6]; below 100 nM in assay [7]. This molecule showed an IC50 against VIM-1 below 1000 nM. For the same molecule, the “Ki (P99/AmpC of ECL, NCF)” value in assay [3] is “X (Less than 0.1 μM)”. For the same molecule, the “Ki (CTX-M-14, NCF)” value in assay [4] was “X (Less than 0.1 μM)”.

Consider `COc1ccc2c(c1C(=O)O)OB(O)[C@@H](SC1CN(S(N)(=O)=O)C1)C2` [Compound 76, (3R)-2-hydroxy-7-methoxy-3-(1-sulfamoylazetidin-3-yl)sulfanyl-3,4-dihydro-1,2-benzoxaborinine-8-carboxylic acid], for which the Ki at NDM-1 [1] is above 100 nM; at NDM-1 [2], above 100 nM; in assay [6], below 100 nM; in assay [7], 100 to 1000 nM. This molecule also yielded an IC50 against VIM-1 of at least 1000 nM. Moreover, in assay [3], the “Ki (P99/AmpC of ECL, NCF)” value was “Y (0.1 μM to 1 μM)”. The “Ki (CTX-M-14, NCF)” value in assay [4] is listed as “X (Less than 0.1 μM)”.

For the molecule `O=C(O)c1c(OC(F)F)ccc2c1OB(O)[C@@H](Sc1nncs1)C2` [Compound 94, (3R)-7-(difluoromethoxy)-2-hydroxy-3-(1,3,4-thiadiazol-2-ylsulfanyl)-3,4-dihydro-1,2-benzoxaborinine-8-carboxylic acid], the Ki at NDM-1 [1] is above 100 nM; at NDM-1 [2], above 100 nM; in assay [6], below 100 nM; in assay [7] it was 100 to 1000 nM. The IC50 at VIM-1 is below 1000 nM. The “Ki (P99/AmpC of ECL, NCF)” value in assay [3] is recorded as “Z (Greater than 1 μM)”. The “Ki (CTX-M-14, NCF)” value in assay [4] was “X (Less than 0.1 μM)”.
